Values quoted from earlier work as cited in the PKSmart pharmacokinetics tables (Seal et al. 2025).

Assay: Lombardo, Berellini, Obach 2018, Drug Metab Dispos 46:1466, doi 10.1124/dmd.118.082966
Settings: human; for MRT / Vd / clearance / half-life: in vivo, iv; for fraction unbound: plasma

SMILES | MRT | Vd | clearance | half-life | fraction unbound
CCC(=O)O[C@]1(C(=O)SCF)[C@H](C)C[C@H]2[C@@H]3C[C@H](F)C4=CC(=O)C=C[C@]4(C)[C@@]3(F)[C@@H](O)C[C@@]21C | 3.9 h | 3.6 L/kg | 17 mL/min/kg | 6 h | 0.1
C[C@@H](O)C1C(=O)N2C(C(=O)O)=C(S[C@H]3CC(C(=O)N4CC[C@H](NC(=O)CNC(=N)N)C4)N(C)C3)[C@H](C)[C@H]12 (some centres not stated) | 2 h | 0.23 L/kg | 1.9 mL/min/kg | 1.7 h | 0.91
CC[C@@H](c1cccc(O)c1)[C@@H](C)CN(C)C | 3.62 h | 4.64 L/kg | 21.3 mL/min/kg | 2.39 h | –
CN1CC(C(=O)N[C@]2(C)O[C@]3(O)[C@@H]4CCCN4C(=O)C(Cc4ccccc4)N3C2=O)C[C@@H]2c3cccc4[nH]cc(c34)C[C@H]21 (some centres not stated) | 0.36 h | 0.33 L/kg | 15.1 mL/min/kg | 0.55 h | –
C[C@@H](NCCCc1cccc(C(F)(F)F)c1)c1cccc2ccccc12 | 16 h | 17.6 L/kg | 18.3 mL/min/kg | 19.9 h | 0.05
COc1ccc([C@@H]2Sc3cc(Cl)ccc3N(CCN(C)C)C(=O)C2OC(C)=O)cc1 (some centres not stated) | 12.3 h | 9.7 L/kg | 13.7 mL/min/kg | 10.6 h | 0.1
CC(Oc1ccc(Oc2cnc3ccc(Cl)cc3n2)cc1)C(=O)O (configuration not stated) | 63 h | 0.19 L/kg | 0.05 mL/min/kg | 48.2 h | 0.0036
CC(=O)OC1=C2C(C)[C@@H](OC(=O)C(O)C(CC(C)C)NC(=O)OC(C)(C)C)[C@@H]3OC(=O)O[C@]3([C@@H](OC(=O)c3ccccc3)[C@@H]3[C@]4(OC(C)=O)CO[C@@H]4C[C@H](O)[C@@]3(C)C1=O)C2(C)C (some centres not stated) | 28.4 h | 13.8 L/kg | 8.12 mL/min/kg | 30.1 h | –
CCC[S@+](O)CCCN(CC)C[C@@H](O)COc1ccc(C#N)cc1 | 2.65 h | 1.8 L/kg | 11.3 mL/min/kg | 2.4 h | –
CNCCC=C1c2ccccc2CCc2ccccc21 | 37 h | 22 L/kg | 10 mL/min/kg | 30 h | –
Cc1ccc(-n2ccnc2)cc1C(O)c1c(C)cc(C(=O)O)cc1C (configuration not stated) | 2.17 h | 0.37 L/kg | 2.91 mL/min/kg | 2.37 h | –
CCCN[C@H]1CCc2nc(N)sc2C1 | 16.1 h | 7 L/kg | 7.2 mL/min/kg | 12.4 h | 0.85
CC(CN1c2ccccc2Sc2ccccc21)N(C)C (configuration not stated) | – | – | – | – | 0.09
Cc1nc(NNC(=O)C(CC2CCCC2)CN(O)C=O)c(F)c(N2CCN3CCOCC3C2)n1 (configuration not stated) | 2.2 h | 0.75 L/kg | 5.6 mL/min/kg | 4.2 h | –
CC1(C)SC2C(NC(=O)C(NC(=O)c3cnc4cccnc4c3O)c3ccccc3)C(=O)N2C1C(=O)O (configuration not stated) | 1.4 h | 0.16 L/kg | 1.9 mL/min/kg | 1.2 h | 0.1
CC(=O)OCC1=C(C(=O)O)N2C(=O)C(NC(=O)CSc3ccncc3)[C@H]2SC1 (some centres not stated) | 0.8 h | 0.13 L/kg | 2.7 mL/min/kg | 1.2 h | 0.55
N#Cc1ccc2c(c1)CN(S(=O)(=O)c1cccs1)[C@H](Cc1ccccc1)CN2Cc1cnc[nH]1 | 1.4 h | 0.84 L/kg | 9.6 mL/min/kg | 1.6 h | 0.01
O=C(/C=C/c1ccc(O)c(O)c1)O[C@@H]1[C@H](O)C[C@@](O)(C(=O)O)C[C@H]1OC(=O)/C=C/c1ccc(O)c(O)c1 | 0.3 h | 0.63 L/kg | 34.6 mL/min/kg | 0.57 h | –

SMILES | MRT | Vd | clearance | half-life | fraction unbound
CN1CCN(CCCCN2C(=O)CN(/N=C/c3ccc(-c4ccc(Cl)cc4)o3)C2=O)CC1 | 100 h | 13 L/kg | 2.4 mL/min/kg | 79 h | 0.06
C[C@H](CCc1ccc(O)cc1)NCCc1ccc(O)c(O)c1 | – | – | 115 mL/min/kg | – | –
Nc1cc(N2CCCCC2)nc(N)[n+]1[O-] | 1.3 h | 0.9 L/kg | 11.5 mL/min/kg | 1.5 h | –
CCCCCc1cc(O)c2c(c1)OC(C)(C)[C@@H]1CCC(C)=C[C@@H]21 | 46 h | 8.9 L/kg | 3.2 mL/min/kg | 33 h | 0.05
CC[C@H](C)[C@@H]([C@@H](CC(=O)N1CCC[C@H]1[C@H](OC)C(C)C(=O)NCCc1ccccc1)OC)N(C)C(=O)C(NC(=O)C(C(C)C)N(C)C)C(C)C (some centres not stated) | 4.6 h | 0.42 L/kg | 1.6 mL/min/kg | 5.67 h | –
CC[C@H](O)[C@@H](C)[C@H]1O[C@@H]1C[C@@](C)(O)/C=C/C=C(\C)[C@H]1OC(=O)C[C@H](O)CC[C@@](C)(O)[C@@H](OC(=O)N2CCN(C3CCCCCC3)CC2)C=C[C@@H]1C | 3.5 h | 10.1 L/kg | 47.9 mL/min/kg | 9.2 h | –
O=C(O)C(CCc1ccccc1)NC1CCCN2CCCC(C(=O)O)N2C1=O (configuration not stated) | 29.5 h | 3.7 L/kg | 2.1 mL/min/kg | 50.6 h | –
Cc1c(-c2ccc(O)cc2)n(Cc2ccc(OCCN3CCCCCC3)cc2)c2ccc(O)cc12 | – | – | – | – | 0.02
CC(C)(C)C1(O)CC2OC(=O)CC23C(=O)OC2OC(=O)C(O)C231 (configuration not stated) | 4 h | 2.5 L/kg | 10 mL/min/kg | 3.2 h | –
COc1cccc2c1c(NS(=O)(=O)c1ccc(Cl)s1)nn2Cc1cccc(CNC(=O)C(C)(C)O)c1 | 5.43 h | 1.65 L/kg | 5.1 mL/min/kg | 13.5 h | –
C[C@@H](Cc1ccccc1)NC(=O)C(N)CCCCN (some centres not stated) | 0.6 h | 0.6 L/kg | 17 mL/min/kg | 1.2 h | –
Nc1ccn([C@@H]2O[C@H](CO)C[C@@H]2F)c(=O)n1 | 1.9 h | 0.7 L/kg | 6.1 mL/min/kg | 1.8 h | 1
CC1(C)CC[C@]2(C(=O)O)CC[C@]3(COC(=O)C=Cc4cc(O)ccc4NC(=O)/C=C/C(=O)O)C(=CC[C@@H]4[C@@]5(C)CCC(=O)C(C)(C)[C@@H]5CC[C@]43C)[C@@H]2C1 | 3.18 h | 1.45 L/kg | 7.6 mL/min/kg | – | –
CCN(CC)CCCC(C)Nc1ccnc2cc(Cl)ccc12 (configuration not stated) | 740 h | 140 L/kg | 4.1 mL/min/kg | 570 h | –
O=C(O)c1cccc(Cc2cc(Cl)ccc2OCc2ccc(Cl)cc2F)n1 | 6.4 h | 0.77 L/kg | 2 mL/min/kg | 8.15 h | –
CC(=O)O[C@H]1C[C@]2(O)[C@H]3CC[C@H]4C[C@H](O[C@H]5C[C@@H](O)[C@@H](O[C@H]6C[C@@H](O)[C@@H](O[C@H]7C[C@@H](O)[C@@H](O)[C@H](C)O7)[C@H](C)O6)[C@H](C)O5)CC[C@@]4(C)[C@H]3CC[C@]2(C)[C@H]1C1=CC(=O)OC1 | 72.3 h | 0.78 L/kg | 8.7 mL/min/kg | 51.6 h | 0.07
CC(C)C1CCC(C(=O)NC(Cc2ccccc2)C(=O)O)CC1 (configuration not stated) | 1.4 h | 0.15 L/kg | 1.8 mL/min/kg | 1.5 h | –
c1cc2c(c(N3CCNCC3)c1)OCCO2 | 10.5 h | 3.6 L/kg | 8 mL/min/kg | 8.2 h | –
